Assay results from ChEMBL document CHEMBL1149235, “Tetrahydronaphthalene-derived amino alcohols and amino ketones as potent and selective inhibitors of the delayed rectifier potassium current IKs” (Bioorg Med Chem Lett, 2004).

Tests used:
[1] = Inhibitory activity against slow component of delayed rectifier potassium current IKs in guinea pig ventricular myocytes; type: cell-based, Cavia porcellus, Ventricular myocyte
[2] = Inhibition of rapid component of delayed rectifier potassium current IKr in guinea pig ventricular myocytes; type: cell-based, Cavia porcellus, Ventricular myocyte
[3] = Cavia porcellus, Ventricular myocyte

Row | Structure (SMILES) | IC50 [1, 3] | IC50 ([1]; ventricular myocyte) | also measured
1 | O=C1c2ccc(Oc3ccccc3)cc2CCC1CCN1CCC(c2ccccc2)CC1 (stereo unspecified) | 1500 nM |  | 
2 | O=C1c2ccc(-c3ccccc3)cc2CCC1CCN1CCC(c2ccccc2)CC1 (stereo unspecified) | 2400 nM |  | 
3 | COc1ccc2c(c1)CCC(CN1CCC(c3ccccc3)CC1)C2=O (stereo unspecified) | 5000 nM |  | IC50 [2, 3]: 4000 nM
4 | O=C1c2ccc(OCc3cccc(-c4ccccc4)c3)cc2CCC1CCN1CCC(c2ccccc2)CC1 (stereo unspecified) | 470 nM |  | 
5 | O=C1c2ccc(OCc3ccccn3)cc2CCC1CCN1CCC(c2ccccc2)CC1 (stereo unspecified) | 1300 nM |  | 
6 | O[C@H]1c2ccc(OCc3ccccc3-c3ccccc3)cc2CC[C@H]1CCN1CCC(c2ccccc2)CC1 | 390 nM |  | 
7 | O=C1c2ccc(OCc3cccnc3)cc2CCC1CCN1CCC(c2ccccc2)CC1 (stereo unspecified) | 380 nM |  | 
8 | O=C1c2ccc(OCc3ccc(-c4ccccc4)cc3)cc2CCC1CCN1CCC(c2ccccc2)CC1 (stereo unspecified) | 1000 nM |  | 
9 | O=C1c2ccc(OCc3ccncc3)cc2CCC1CCN1CCC(c2ccccc2)CC1 (stereo unspecified) | 200 nM |  | 
10 | O=C1c2ccc(OCc3ccccc3)cc2CCC1CC(=O)N1CCC(c2ccccc2)CC1 (stereo unspecified) | > 30000 nM |  | 
11 | O=C1c2ccc(OCc3ccccc3-c3ccccc3)cc2CCC1CCN1CCC(c2ccccc2)CC1 (single isomer, unassigned) |  | 340 nM | IC50 ([2]; ventricular myocyte): 1600 nM
12 | OC1c2ccc(OCc3ccccc3)cc2CCC1CCN1CCC(c2ccccc2)CC1 (single isomer, unassigned) |  | 1300 nM | IC50 ([2]; ventricular myocyte): 110 nM
13 | COc1ccc2c(c1)CCC(CCN1CCC(c3ccccc3)CC1)C2=O (single isomer, unassigned) |  | 1700 nM | 
14 | O[C@@H]1c2ccc(OCc3ccccc3-c3ccccc3)cc2CC[C@H]1CCN1CCC(c2ccccc2)CC1 (stereo in doubt) |  | 1000 nM | 
15 | OC1c2ccc(OCc3ccccc3)cc2CCC1CCN1CCC(c2ccccc2)CC1 (stereo in doubt; 7b) |  | 150 nM | IC50 [2, 3]: 170 nM
16 | COc1ccc2c(c1)CCC(CCN1CCC(c3ccccc3)CC1)C2=O (stereo in doubt; 8a) |  | 400 nM | IC50 [2, 3]: 1700 nM
17 | O=C1c2ccc(OCc3ccccc3)cc2CCC1CCN1CCC(c2ccccc2)CC1 (stereo in doubt; 8b) |  | 69 nM | IC50 ([2]; ventricular myocyte): 160 nM
18 | O=C1c2ccc(OCc3ccccc3-c3ccccc3)cc2CCC1CCN1CCC(c2ccccc2)CC1 (stereo in doubt; 10d) |  | 30 nM | IC50 ([2]; ventricular myocyte): 260 nM
19 | O[C@@H]1c2ccc(OCc3ccccc3-c3ccccc3)cc2CC[C@H]1CCN1CCC(c2ccccc2)CC1 (stereo in doubt; 14a) |  | 37 nM | 
